Source: paper PMC7083851, “Extended pharmacodynamic responses observed upon PROTAC-mediated degradation of RIPK2” (Communications Biology, 2020)
Several values for one entry are separate records, joined by “and”; a condition that tells them apart may be missing. Equal entries are not always repeated. Where two headings read alike, the source gives them in different places.

Key:
[1] = test system: L18-MDP-stimulated TNFα release; experiment: TNFα after ex vivo L18-MDP stimulation of blood from dosed rats; assay type: in vivo, rat; parameters: key to TNFα after ex vivo L18-MDP stimulation: % of pre-dose or vehicle sample; conditions: for TNFα after ex vivo L18-MDP stimulation: fig 5b; for TNFa: fig 5e, individual rats 6-10, time 0 = 100; for TNFα inhibition (ex vivo L18-MDP): 0.05 mg/kg/day QD SC
Experimental: Male CD or Wistar Han rats (7–9 weeks old, Charles River UK Ltd.) were randomly allocated to treatment groups upon arrival. Female CD rats (7–8 weeks old on arrival, Charles River Ltd.) were placed into groups using a randomization schedule based on body weight prior to the study start. All animals were acclimatized for a minimum of one week prior to the experiment commencing.
Subcutaneous PROTAC solution formulations were prepared on the day of dosing as outlined below and filtered through a 0.22 µm Millex PVDF filter (Millipore) prior to PROTAC administration. PROTAC 4 was dissolved in saline with the pH adjusted to 5.0 with sodium hydroxide (1 M).
(§1) Ex vivo stimulation of rat blood with L18-MDP for PD: PPD blood samples taken prior to PROTAC administration or at fixed timepoints post PROTAC administration through the course of the study, were treated ex vivo with 100 ng/mL L18-MDP (Invivogen) or vehicle (0.1% DMSO) and incubated for 4 h. Following centrifugation, plasma was collected for cytokines analysis as detailed in cytokines assay section. Additionally, RIPK2 levels were determined in PBMCs isolated from blood and where collected, in sampled colon tissue as described in the text.
(§2) Cytokine measurement assay: Cytokine levels were measured in rat plasma or rat PBMCs cell culture supernatants using rat V-Plex TNFα, in human plasma or human PBMCs cell culture supernatants with either TNFα tissue culture or 7-plex kit. Rat serum and tissues samples from the in vivo L18-MDP acute inflammation model were analyzed using the rat TNFα, Il-6 and IL-8 U-Plex kits. All kits provided by Meso Scale Discovery (MSD). Levels of cytokines spontaneously released from human colon biopsies cell culture supernatants were measured using Human IL-1 beta/IL-1F2 DuoSet ELISA (Bio-techne), Human IL-6 ELISA (Immunotools) and Human TNF-alpha DuoSet ELISA (Bio-techne). All samples were processed accordingly to the manufacturer’s instructions. The MSD plates were analyzed using the MSD sector imager 6000 plate reader and cytokines concentration (pg/ml) was obtained by using the MSD DISCOVERY WORKBENCH software version 4.0.12.1
(§3) Statistics and reproducibility: All data were represented as percentage of the control sample: DMSO treated cells for the in vitro assays and the pre-dose or vehicle sample for the in vivo experiments.

RIPK2 = experiment: In vivo RIPK2 degradation in rat (PBMCs isolated from blood, Western blot); conditions: for RIPK2: fig 5e, individual rats 6-10, time 0 = 100; for RIPK2 (time 0 = 100): rats 1-4, fig 5c
Experimental: Rat PK/PD studies: On arrival, all rats were housed in a plastic solid bottom cage in groups of 2–3 with access to food and water ad libitum and under a 12 h light–dark cycle. Male CD or Wistar Han rats (7–9 weeks old, Charles River UK Ltd.) were randomly allocated to treatment groups upon arrival. Female CD rats (7–8 weeks old on arrival, Charles River Ltd.) were placed into groups using a randomization schedule based on body weight prior to the study start. All animals were acclimatized for a minimum of one week prior to the experiment commencing.
Subcutaneous PROTAC solution formulations were prepared on the day of dosing as outlined below and filtered through a 0.22 µm Millex PVDF filter (Millipore) prior to PROTAC administration. PROTAC 4 was dissolved in saline with the pH adjusted to 5.0 with sodium hydroxide (1 M). […].
as §1
Blood was mixed with optiPREP (Sigma) and following centrifugation at 1300 × g the PBMCs layer was collected. For in vivo studies, RIPK2 levels were determined immediately via immunoblotting, whereas for in vitro studies PBMCs were treated as detailed in the in vitro treatment section.
as §3
For in vivo studies, RIPK2:tubulin ratios and cytokine levels from each individual experiment were analysed either using a One-way ANOVA with Dunnet’s post-test or a two way ANOVA using GraphPad Prism 5.0.4 to determine statistical significance with 95% confidence levels.

[2] = test system: L18-MDP-induced TNFα release; experiment: L18-MDP-induced cytokine release (TNFα, IL1β, IL-6, IL-8, IL-10) in human PBMCs; assay type: cell-based; conditions: Homo sapiens, PBMC
Experimental: PBMCs were isolated from leukodepletion filter from platelet aphaeresis supplied by National Health System Blood and Transplant—NHSBT Apheresed at NHBST.
Before treatment with compound or vehicle, THP1 cells, human and rat PBMCs were counted using Vi-Cell cell counter (Invitrogen) and adjusted to a final cell density of […] using complete growth medium. Cells or whole blood were treated with vehicle (0.1% DMSO) or fixed concentrations of compound up to 1 μM in half log unit increments and incubated for the time period indicated in the figure.
Where the assessment of cytokines was performed, L18-MDP was added to the cell culture media (1 μg/ml) or to the rat blood samples (100 ng/ml) and samples were incubated for up to 4 h. […] Samples were them spun down at 1000 g and the cell culture supernatant, plasma or serum were collected for cytokines assessment, while cell pellets were used for RIPK2 and/or cIAP1, cIAP2, and XIAP levels analysis via immunoblotting.
as §2
In vitro experimental data were analyzed using a 4-parameter logistic equation in GraphPad Prism 5.0.4. to generate an estimate of the half-maximal concentration and maximal degradation, DC50 and Dmax value respectively, for concentration-degradation relationships. Cytokine levels were analyzed in a similar manner to yield IC50 and Imax values. […] Where analysis to a sigmoidal relationship was not possible, the data points are shown as mean ± s.e.m.

## CN[C@@H](C)C(=O)N[C@H](C(=O)N1C[C@@H](NC(=O)c2cnc(N3CCN(CCCOc4cc5ncnc(Nc6n[nH]c(C)c6C)c5cc4S(=O)(=O)C(C)(C)C)CC3)cn2)C[C@H]1C(=O)Nc1c(F)cccc1F)C(C)(C)C [PROTAC 6]
[1]; 0.005 mg/kg, time 6 h, rats 6-10
  TNFα after ex vivo L18-MDP stimulation: 103.74 and 107.75 and 89.01 and 67.06 and 122.94
[1]; 0.005 mg/kg, time 96 h, rats 6-10
  TNFα after ex vivo L18-MDP stimulation: 59.51 and 62.83 and 97.91 and 70.36 and 61.76
[1]; 0.05 mg/kg, time 48 h, rats 11-15
  TNFα after ex vivo L18-MDP stimulation: 25.93 and 24.59 and 27.99 and 42.15 and 37.98
[1]; time 24 h
  TNFa: 0.86 and 0.61 and 0.92 and 2.90 and 3.38
[1]; time 72 h
  TNFa: 13.57 and 6.85 and 8.80 and 22.86
[1]; rat, 0.05 mg/kg Q3D SC
  cumulative PD effect, in words: failed to show this cumulative PD effect
[1]; rat, 6 h post-dose
  TNFα inhibition (ex vivo L18-MDP): ~ 60%
[1]; rat, 24 h post-dose
  TNFα inhibition (ex vivo L18-MDP): ~ 60%
[1]; rat, 54 h (6 h after third dose)
  TNFα inhibition (ex vivo L18-MDP): > 90%
[1]; rat, 0.5 mg/kg/day QD SC, 24 h
  inhibition of TNFα release (ex vivo L18-MDP): > 90%
[1]; rat, single 0.005 mg/kg SC
  effect on TNFα levels, in words: no significant effect
[1]; rat, single 0.05 mg/kg SC, first 48 h
  inhibition of TNFα release upon ex vivo L18-MDP challenge: > 60%
[1]; rat, single 0.5 mg/kg SC, over the duration of the study (5 days)
  inhibition of TNFα levels upon ex vivo whole blood L18-MDP challenge: > 70%
[1]; time 72 h, rats 11-15, fig 5d
  TNFa (time 0 = 100): 91.60 and 114.81 and 76.37 and 83.72
RIPK2; 0.005 mg/kg, equals the mean of the four other rats at 24 h, fig 5a
  RIPK2 level (time 0 = 100), unlabelled cell under rat 8: 92.1904
RIPK2; 0.005 mg/kg, time 24 h, rats 6-10, fig 5a
  RIPK2 level (time 0 = 100): 71.58 and 92.75 and 127.25 and 77.18
RIPK2; 0.005 mg/kg, time 48 h, rats 6-10, fig 5a
  RIPK2 level (time 0 = 100): 107.66 and 189.11 and 139.36 and 104.71 and 114.34
RIPK2; 0.05 mg/kg, time 6 h, rats 11-15, fig 5a
  RIPK2 level (time 0 = 100): 60.71 and 118.09 and 89.04 and 78.70 and 85.87
RIPK2; 0.05 mg/kg, time 24 h, rats 11-15, fig 5a
  RIPK2 level (time 0 = 100): 70.75 and 59.91 and 86.01 and 67.12 and 70.61
RIPK2; 0.5 mg/kg, time 72 h, rats 16-20, fig 5a
  RIPK2 level (time 0 = 100): 25.93 and 26.14 and 14.54 and 23.73 and 19.84
RIPK2; time 24 h
  RIPK2: 41.32 and 46.91 and 38.86 and 44.83 and 39.94
  RIPK2 (time 0 = 100): 71.45 and 57.80 and 52.77 and 57.74
RIPK2; time 72 h
  RIPK2: 55.66 and 38.00 and 35.30 and 41.29 and 38.74
RIPK2; rat, 0.05 mg/kg/day QD SC, last time point
  RIPK2 degradation: > 70%
RIPK2; rat, 0.5 mg/kg/day QD SC, 24 h
  RIPK2 degradation: ~ 70%
RIPK2; rat, 0.5 mg/kg/day QD SC, last time point after third dose
  RIPK2 degradation: > 90%
RIPK2; rat, single 0.005 mg/kg SC
  effect on RIPK2 levels, in words: no significant effect
RIPK2; rat, single 0.05 mg/kg SC
  effect on RIPK2 protein levels, in words: did not have a statistically significant effect
RIPK2; rat, single 0.5 mg/kg SC, 6 h post-dose
  RIPK2 degradation: 53 ± 9%
RIPK2; rat, single 0.5 mg/kg SC, 48 h
  RIPK2 degradation: 78 ± 5%
RIPK2; time 6 h
  RIPK2 (time 0 = 100): 85.25 and 86.14 and 86.72 and 88.07
RIPK2; time 30 h
  RIPK2 (time 0 = 100): 42.20 and 43.44 and 40.14 and 48.21
RIPK2; time 48 h
  RIPK2 (time 0 = 100): 32.57 and 27.38 and 24.98 and 36.77
RIPK2; time 54 h
  RIPK2 (time 0 = 100): 24.47 and 24.71 and 23.45 and 32.20
[2]; 6 h, read-out: hPBMC MDP pIC50 ± SEM, 6 h (n = 3) (converted)
  IC50: 0.501 nM
[2]; read-out: pIC50 IL1β release following L18-MDP-stimulation (converted)
  IC50: < 1.58 nM
[2]; read-out: pIC50 IL-6 release following L18-MDP-stimulation (converted)
  IC50: < 1.58 nM
[2]; read-out: pIC50 IL-10 release following L18-MDP-stimulation (converted)
  IC50: < 1.58 nM
[2]; read-out: pIC50 TNFα release following L18-MDP-stimulation (converted)
  IC50: < 1.58 nM
